# Patent publication US20070213402A1, “Compounds which interact with the thyroid hormone receptor for the treatment of fibrotic disease” (priority 1998, published 2007)
# Legend:
# [1] = tested on: collagenase (MMP-1) promoter; assay: Experiment 4.3: collagenase (MMP-1) promoter-luciferase in MCF-7 cells with transfected chick thyroid hormone receptor; format: cell-based, human; settings: MCF-7 + chick thyroid hormone receptor; for % Control: Blank = 100
# Procedure: (§1) These experiments were intended to identify the receptor through which compounds I might be acting to block collagenase promoter activity.
# (§2) Transfection procedure hereinbefore described with CV1 cells was repeated using MCF-7 mammary breast cancer cells derived from pleural effusion from a breast cancer patient. Additionally, each experiment included transfection of a plasmid (at 8 ug per 5×10^5 cells) containing the −517/+63 section of the collagenase (MMP-1) promoter linked to the luciferase gene. TPA was used as above to stimulate activity of the collagenase promoter resulting in luciferase production. Compound II or 3,3,5-triiodo-L-thyronine (T3) was included (both at 10^−8M), the latter being a known ligand for the thyroid hormone receptor.
# [2] = tested on: collagenase (MMP-1) promoter; assay: Experiment 4.2: collagenase (MMP-1) promoter-luciferase in MCF-7 cells with antisense construct for the thyroid receptor; format: cell-based, human; settings: MCF-7 + thyroid receptor antisense; for % Control: Blank = 100
# Procedure: as §1, §2
# Experiment 4.2. The procedure of Experiment 4.1 was repeated except that a second plasmid, containing 662 bp antisense construct for the thyroid receptor (at 8 ug per 5×10^5 cells) was additionally transfected.
# [3] = tested on: collagenase (MMP-1) promoter; assay: Experiment 4.1: collagenase (MMP-1) promoter (-517/+63)-luciferase in MCF-7 cells, endogenous thyroid hormone receptors; format: cell-based, human; settings: MCF-7, endogenous thyroid hormone receptors; for % Control: Blank = 100
# Procedure: as §1, §2
# Experiment 4.1. As MCF-7 cells express endogenous thyroid hormone receptors, only the collagenase promoter plasmid (at 8 ug per 5×10^5 cells) was transfected into the MCF-7 cells.
# NFκB = assay: Experiment 3: NFκB-driven 3-EnhTK-Luc reporter in CV1 cells with GR1; format: cell-based, African Green Monkey; settings: for % Control: Blank = 100
# Excerpt: (§3) Two plasmid constructs were introduced by standard calcium phosphate precipitation of DNA followed by glycerol shock (Ausubel F M, Brent R, Kingston D D, Moore J G et al Current protocols in molecular biology 1994 Greene Publishing Associates/Wiley-Interscience, New York, N.Y.) using a transformed African Green Monkey kidney cell line (CV1) (Schneikert J, Peterziel H, Defossez P-A, Klocker H, de Launoit Y and Cato A C B Androgen receptor-Ets protein interaction is a novel mechanism for steroid hormone-mediated down-modulation of matrix metalloproteinase expression, Journal of Biological Chemistry. Vol 271(39) (pp 23907-23913), 1996).
# This experiment was intended to show the effect of compounds I on a mediator of the immune response, nuclear factor—κB (NF-κB).
# The following two plasmids were included into CV1 cells described above— • (a) GR1 as described above at 2 ug per 5×10^5 cells, and • (b) a plasmid designated 3-EnhTK-Luc (at 0.5 ug per 5×10^5 cells) which contains a transcription site that is activated by NFκB.
# The blank represented the inclusion of these two plasmids alone; the relatively high value was caused by (i) the high level of serum in the culture, and (ii) the associated stress that the cells underwent during the […]—both of which upregulate NFκB. There was also a related relatively low activation of TNF (at 4 ng/ml) above a serum containing blank in the experiment. TNF was tumour necrosis factor alpha.
# androgen receptor = biological target: T1, androgen receptor (Homo sapiens, UniProt P10275); assay: Experiment 2: PGL3MMTV-luciferase transactivation in CV1 cells with androgen receptor (AR); format: cell-based; settings: for % control (AR): Blank = 100
# T1 construct: expressed in transfected cells; host or cells: CV1 (transformed African Green Monkey kidney cell line)
# T1 sequence (P10275 1-920): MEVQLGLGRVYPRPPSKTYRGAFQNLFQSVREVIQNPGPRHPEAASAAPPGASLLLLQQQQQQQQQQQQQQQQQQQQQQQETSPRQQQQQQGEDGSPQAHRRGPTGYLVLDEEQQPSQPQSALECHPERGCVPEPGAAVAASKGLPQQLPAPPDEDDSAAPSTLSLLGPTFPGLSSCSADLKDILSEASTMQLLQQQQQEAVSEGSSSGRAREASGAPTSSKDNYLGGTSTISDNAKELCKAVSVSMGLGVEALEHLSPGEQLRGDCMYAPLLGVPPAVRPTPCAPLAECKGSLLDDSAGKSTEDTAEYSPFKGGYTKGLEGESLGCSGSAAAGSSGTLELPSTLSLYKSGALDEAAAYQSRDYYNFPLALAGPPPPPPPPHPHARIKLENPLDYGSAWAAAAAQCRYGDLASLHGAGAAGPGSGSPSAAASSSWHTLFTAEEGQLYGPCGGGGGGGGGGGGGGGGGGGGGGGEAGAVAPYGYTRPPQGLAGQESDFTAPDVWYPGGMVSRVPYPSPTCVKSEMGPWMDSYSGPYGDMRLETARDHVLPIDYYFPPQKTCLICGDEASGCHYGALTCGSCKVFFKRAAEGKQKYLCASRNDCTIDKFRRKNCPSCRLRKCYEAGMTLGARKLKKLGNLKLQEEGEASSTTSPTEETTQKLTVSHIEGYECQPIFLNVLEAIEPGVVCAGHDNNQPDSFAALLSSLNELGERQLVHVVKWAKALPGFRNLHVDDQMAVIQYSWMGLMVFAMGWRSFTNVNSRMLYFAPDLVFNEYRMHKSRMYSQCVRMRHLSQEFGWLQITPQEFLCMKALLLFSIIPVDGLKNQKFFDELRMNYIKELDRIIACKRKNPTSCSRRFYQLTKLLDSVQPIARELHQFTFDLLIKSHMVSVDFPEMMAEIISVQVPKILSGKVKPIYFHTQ
# Excerpt: as §3
# This experiment was intended to investigate the activation of androgen and corticosteroid receptors by compound I.
# CPII was compound II above, clobuzarit, which was used at 10^−7M.
# [4] = substance 10^-8M added with TPA
# [5] = substance added alone, CPII 10^-8M
# [6] = substance added alone, TNF 4 ng/ml
# [7] = substance added with TNF 4 ng/ml
# [8] = CPII 10^-7M together with DHT 10^-7M
smiles,measurement,setting,value
"CC(C)(OCc1ccc(-c2ccc(Cl)cc2)cc1)C(=O)O [Compound II, 1-[4-(4-chlorophenyl)benzyloxy]-1-methylpropionic acid]","stimulated collagenase transcription, in words",[1]; TPA,able to reduce stimulated collagenase transcription
same,Raw Counts,[1]; [4],4414 counts
same,% Control,[1]; [4],202%
same,% Control,[1]; substance added alone,72%
same,Raw Counts,[1]; [5],1572 counts
same,"luciferase production when thyroid hormone receptor synthesis is inhibited, in words",[2],substantially prevented
same,Raw Counts,[2]; [4],8716 counts
same,% Control,[2]; [4],597.8%
same,% Control,[2]; substance added alone,163.2%
same,Raw Counts,[2]; [5],2379 counts
same,"effect on TPA stimulation of luciferase production, in words",[3],able further to enhance TPA stimulation of luciferase production
same,Raw Counts,[3]; [4],352376 counts
same,% Control,[3]; [4],2802.2%
same,% Control,[3]; substance added alone,47.9%
same,Raw Counts,[3]; [5],6029 counts
same,Raw Counts,NFκB; [6],75812 counts
same,% Control,NFκB; [6],127%
same,Raw Counts,NFκB; [7],135886 counts
same,% Control,NFκB; [7],228%
same,"upregulation of transcriptional activity by NFκB, in words",NFκB; versus background value,not able to upregulate transcriptional activity by NFκB
same,"inhibitory effect on NFκB transcription, in words",NFκB; with TNF,lack of inhibitory effect
same,"activation of androgen receptor-driven transcription, in words","androgen receptor; 10^-7M, compared with DHT",negligible activity
same,Raw counts (AR),androgen receptor; [8],1232241 counts
same,% control (AR),androgen receptor; [8],26574%
same,Raw counts (AR),androgen receptor; substance alone at 10^-7M,33130 counts
same,% control (AR),androgen receptor; substance alone at 10^-7M,714%
